Data: PubChem BioAssay AID2060900 (Molecular Pharmacology Branch, DTP, NCI, 2025)
One block for each compound: values may come before it.

Test system: 521955-158-R2-J5-PDC complex spheroids, viability
Test: Anticancer human tumor 521955-158-R2-J5-PDC patient-derived pancreatic carcinoma cell line growth inhibition [RAS]
Conditions: for IC50: curve of first compound; for viability, T/C: stronger effect = lower value
Source text: RAS pathway inhibitors in Combinations in Complex Spheroids
A high-throughput screen of multi-cell type tumor spheroids was designed to identify active combinations of RAS pathway inhibitors and targeted small molecules. Complex spheroids include a stromal component modeled by human endothelial cells (HUVEC) and fibroblasts modeled by human mesenchymal stem cells (MSCs). The concentration ranges selected for each drug and investigational agent were based upon clinically achievable concentrations if the clinical Cmax of the agent was known.
Compounds. The drugs and investigational agents: abemaciclib (NSC768073), cobimetinib (NSC768068), divarasib (GDC6063, NSC841802), docetaxel (NSC628503), GDC-1971 (RLY-1971, NSC841576), gemcitabine (NSC613327), inavolisib (NSC800729), ipatasertib (NSC767898), KB-0742 (NSC834161), MRTX-1133 (NSC836407), osimertinib (NSC779217), RMC-4630 (NSC839698), RMC-6236 (NSC851965), RMC-6291 (NSC852671), Ro-3306 (NSC812927), sapanisertib (NSC764658), SN-38 (NSC673596), staurosporine (NSC755774), SY5609 (NSC837396), and tovorafenib (DAY101, NSC766906), were obtained from the National Cancer Institute (NCI) Developmental Therapeutics Program Chemical Repository. The FDA-approved anticancer drug set is available from the NCI Developmental Therapeutics Program. […] The stock solutions were prepared in dimethyl sulfoxide (DMSO, Sigma-Aldrich, St. Louis, MO, cat. D2650) at 800-fold the tested concentration and stored at -70 degrees C prior to their use. All drugs and investigational agents were tested over a range starting from a high concentration at or near the clinical Cmax and decreasing in half-log increments. If the clinical Cmax for an agent had not been determined, the highest concentration tested was 10 microM.
Cell Culture. All cells were maintained in an incubator at 37 degrees C and 5% CO2 with 95% humidity. The PDC lines were cultured according to standard operating procedures established by the NCI PDMR. All PDCs were thawed and cultured in Matrigel-coated flasks prepared with a working solution of 1X Ham's F-12 nutrient mix, without supplementation (Invitrogen, Waltham, MA, cat. 11765054), 100 U/mL penicillin-streptomycin (Invitrogen, cat. 15140122), and 2.5% Matrigel (Corning Inc., Corning, NY, cat. 354248) for the first three passages. The 362531-283-R-J2-PDC and 782815-120-R-J1-PDC lines were cultured in 6C/Colon 1B media, which includes advanced DMEM/F-12 (Thermo Fisher Scientific, cat. 12634028), 10 mM HEPES (Thermo Fisher Scientific, cat. 15630080), 1X GlutaMAX supplement (Thermo Fisher Scientific, cat. 35050061), 0.1 mg/mL primocin (InvivoGen, San Diego, CA, cat. ant-pm-2), 10% defined fetal bovine serum, heat inactivated (HyClone Laboratories Inc., Logan, UT, cat. SH30070.03HI), 50% L-WRN conditioned media (ATCC, cat. CRL-3276), 1.25 mM N-Acetyl-L-cysteine (Sigma-Aldrich, cat. A9165), 10 mM nicotinamide (Sigma-Aldrich, cat. N0636), 1X B-27 supplement (Thermo Fisher Scientific, cat. 17504044), 1X N-2 supplement (Thermo Fisher Scientific, cat. 17502048), 50 ng/mL human EGF (Thermo Fisher Scientific, cat. PHG0311), and 10 microM Y-27632 dihydrochloride (Tocris Bioscience, cat. 1254). The K12877-001-R-J1-PDC line was cultured in 6I media, which includes all 6C/Colon 1B media plus 10 ng/mL human FGF-10 (PeproTech, cat. 100-26), 1 ng/mL human FGF-2 (PeproTech, cat. 100-18B), 1 µM prostaglandin E2 (Tocris Bioscience, cat. 2296), […] hydrocortisone (Sigma-Aldrich, cat. H4001), and […] bovine insulin (Sigma-Aldrich, cat. I6634). The K86415-001-R-J1-PDC line was cultured in 6D media, which includes all 6C/Colon 1B media components minus the L-WRN conditioned media. The 485176-168-R4-J1-PDC was cultured in PANC media, which includes all 6C/Colon 1B media plus 100 ng/mL human FGF-10 (PeproTech, cat. 100-26), 500 nM SB-431542 (Selleckchem, cat. S1067), and 10 nM gastrin (Tocris Bioscience, cat. 3006). […]

[1] = second compound 0.0316 µM, first compound 0.0316 µM
[2] = second compound 0.0316 µM, first compound 0.1 µM
[3] = second compound 0.0316 µM, first compound 0.316 µM
[4] = second compound 0.0316 µM, first compound 1 µM
[5] = second compound 0.0316 µM, first compound 3.16 µM
[6] = second compound 0.0316 µM, first compound 10 µM
[7] = second compound 0.1 µM, first compound 0.0316 µM
[8] = second compound 0.1 µM, first compound 0.1 µM
[9] = second compound 0.1 µM, first compound 0.316 µM
[10] = second compound 0.1 µM, first compound 1 µM
[11] = second compound 0.1 µM, first compound 3.16 µM
[12] = second compound 0.1 µM, first compound 10 µM
[13] = second compound 0.316 µM, first compound 0.0316 µM
[14] = second compound 0.316 µM, first compound 0.1 µM
[15] = second compound 0.316 µM, first compound 0.316 µM
[16] = second compound 0.316 µM, first compound 1 µM
[17] = second compound 0.316 µM, first compound 3.16 µM
[18] = second compound 0.316 µM, first compound 10 µM
[19] = second compound 1 µM, first compound 0.0316 µM
[20] = second compound 1 µM, first compound 0.1 µM
[21] = second compound 1 µM, first compound 0.316 µM
[22] = second compound 1 µM, first compound 1 µM
[23] = second compound 1 µM, first compound 3.16 µM
[24] = second compound 1 µM, first compound 10 µM
[25] = second compound 3.16 µM, first compound 0.0316 µM
[26] = second compound 3.16 µM, first compound 0.1 µM
[27] = second compound 3.16 µM, first compound 0.316 µM
[28] = second compound 3.16 µM, first compound 1 µM
[29] = second compound 3.16 µM, first compound 3.16 µM
[30] = second compound 3.16 µM, first compound 10 µM
[31] = second compound 10 µM, first compound 0.0316 µM
[32] = second compound 10 µM, first compound 0.1 µM
[33] = second compound 10 µM, first compound 0.316 µM
[34] = second compound 10 µM, first compound 1 µM
[35] = second compound 10 µM, first compound 3.16 µM
[36] = second compound 10 µM, first compound 10 µM
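Also: compound exposure lasted seven days before the viability read.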
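For viability, T/C in this document: spheroids also contain HUVEC endothelial cells and mesenchymal stem cells as stroma.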

IC50 (second compound 0.0316 µM): > 10000 nM | IC50 (second compound 0.1 µM): 3760 nM | IC50 (second compound 0.316 µM): < 31.6 nM | IC50 (second compound 1 µM): 31.6 nM | IC50 (second compound 3.16 µM): < 31.6 nM | IC50 (second compound 10 µM): < 31.6 nM
Compound: CC1(O)CCCC1n1c(=O)c(C(F)F)cc2cnc(NC3CCN(S(C)(=O)=O)CC3)nc21 (stereo unspecified) + C#Cc1c(F)ccc2cc(O)cc(-c3ncc4c(N5CC6CCC(C5)N6)nc(OCC56CCCN5CC(F)C6)nc4c3F)c12
viability, T/C [1]: 53.9% | viability, T/C [2]: 48% | viability, T/C [3]: 60.1% | viability, T/C [4]: 68.4% | viability, T/C [5]: 75.1% | viability, T/C [6]: 24.9% | viability, T/C [7]: 48.8% | viability, T/C [8]: 56.6% | viability, T/C [9]: 43.4% | viability, T/C [10]: 53.9% | viability, T/C [11]: 73% | viability, T/C [12]: 21.3% | viability, T/C [13]: 44.5% | viability, T/C [14]: 37.4% | viability, T/C [15]: 41.1% | viability, T/C [16]: 51.3% | viability, T/C [17]: 63.1% | viability, T/C [18]: 19.5% | viability, T/C [19]: 52.3% | viability, T/C [20]: 41.4% | viability, T/C [21]: 39.8% | viability, T/C [22]: 47.8% | viability, T/C [23]: 59.5% | viability, T/C [24]: 21.6% | viability, T/C [25]: 45.9% | viability, T/C [26]: 31.5% | viability, T/C [27]: 38.8% | viability, T/C [28]: 40.6% | viability, T/C [29]: 56.6% | viability, T/C [30]: 24.4% | viability, T/C [31]: 42.4% | viability, T/C [32]: 30.6% | viability, T/C [33]: 40.4% | viability, T/C [34]: 46.2% | viability, T/C [35]: 62.8% | viability, T/C [36]: 12.3%

IC50 (second compound 0.0316 µM): 1370 nM | IC50 (second compound 0.1 µM): 1160 nM | IC50 (second compound 0.316 µM): 1080 nM | IC50 (second compound 1 µM): 737 nM | IC50 (second compound 3.16 µM): 935 nM | IC50 (second compound 10 µM): 31.6 nM
Compound: CCC(CC)c1cc(NC2CCC(N)C2)n2nccc2n1 (stereo unspecified) + C#Cc1c(F)ccc2cc(O)cc(-c3ncc4c(N5CC6CCC(C5)N6)nc(OCC56CCCN5CC(F)C6)nc4c3F)c12
viability, T/C [1]: 62.2% | viability, T/C [2]: 56% | viability, T/C [3]: 68.2% | viability, T/C [4]: 77.6% | viability, T/C [5]: 5.12% | viability, T/C [6]: 10.6% | viability, T/C [7]: 51.8% | viability, T/C [8]: 59.7% | viability, T/C [9]: 65.7% | viability, T/C [10]: 55.8% | viability, T/C [11]: 8.07% | viability, T/C [12]: 12.2% | viability, T/C [13]: 56.4% | viability, T/C [14]: 72.5% | viability, T/C [15]: 56.3% | viability, T/C [16]: 53% | viability, T/C [17]: 7.76% | viability, T/C [18]: 12.5% | viability, T/C [19]: 47.6% | viability, T/C [20]: 54.1% | viability, T/C [21]: 64% | viability, T/C [22]: 48.1% | viability, T/C [23]: 7.46% | viability, T/C [24]: 10.2% | viability, T/C [25]: 53.8% | viability, T/C [26]: 61.7% | viability, T/C [27]: 52.2% | viability, T/C [28]: 49.7% | viability, T/C [29]: 4.58% | viability, T/C [30]: 13.5% | viability, T/C [31]: 46% | viability, T/C [32]: 51.2% | viability, T/C [33]: 45% | viability, T/C [34]: 33% | viability, T/C [35]: 4.49% | viability, T/C [36]: 9.43%

IC50 (second compound 0.0316 µM): > 1000 nM | IC50 (second compound 0.1 µM): > 1000 nM | IC50 (second compound 0.316 µM): > 1000 nM | IC50 (second compound 1 µM): 316 nM | IC50 (second compound 3.16 µM): < 3.16 nM | IC50 (second compound 10 µM): < 3.16 nM
Compound: CCN1CCN(Cc2ccc(Nc3ncc(F)c(-c4cc(F)c5nc(C)n(C(C)C)c5c4)n3)nc2)CC1 + C#Cc1c(F)ccc2cc(O)cc(-c3ncc4c(N5CC6CCC(C5)N6)nc(OCC56CCCN5CC(F)C6)nc4c3F)c12
viability, T/C (second compound 0.0316 µM, first compound 0.00316 µM): 66.7% | viability, T/C (second compound 0.0316 µM, first compound 0.01 µM): 69.4% | viability, T/C [1]: 57.5% | viability, T/C [2]: 73.8% | viability, T/C [3]: 71.5% | viability, T/C [4]: 72.8% | viability, T/C (second compound 0.1 µM, first compound 0.00316 µM): 46% | viability, T/C (second compound 0.1 µM, first compound 0.01 µM): 65.2% | viability, T/C [7]: 59.2% | viability, T/C [8]: 61.2% | viability, T/C [9]: 65.9% | viability, T/C [10]: 66.6% | viability, T/C (second compound 0.316 µM, first compound 0.00316 µM): 61.2% | viability, T/C (second compound 0.316 µM, first compound 0.01 µM): 53.5% | viability, T/C [13]: 46.9% | viability, T/C [14]: 52.9% | viability, T/C [15]: 51.1% | viability, T/C [16]: 67.9% | viability, T/C (second compound 1 µM, first compound 0.00316 µM): 58.5% | viability, T/C (second compound 1 µM, first compound 0.01 µM): 56.4% | viability, T/C [19]: 58% | viability, T/C [20]: 45.5% | viability, T/C [21]: 49.5% | viability, T/C [22]: 56.1% | viability, T/C (second compound 3.16 µM, first compound 0.00316 µM): 50.2% | viability, T/C (second compound 3.16 µM, first compound 0.01 µM): 44.8% | viability, T/C [25]: 47.8% | viability, T/C [26]: 42.6% | viability, T/C [27]: 59.9% | viability, T/C [28]: 51% | viability, T/C (second compound 10 µM, first compound 0.00316 µM): 39.7% | viability, T/C (second compound 10 µM, first compound 0.01 µM): 37.2% | viability, T/C [31]: 30.9% | viability, T/C [32]: 31.4% | viability, T/C [33]: 36% | viability, T/C [34]: 24.7%
